Measurements taken from patent publication US20020111274A1, “1-alkyl-3-[1-(substituted phenyl) benzotriazol-6-yl] uracils” (BASF Aktiengesellschaft, priority 2000, published 2002).

Columns and labels:
Design in all cases: scale not given here
ABUTH Velvetleaf [1] = test: Postemergence herbicidal evaluation, ABUTH; type: in vivo, Abutilon theophrasti, Medic.; settings: postemergence spray, rated about two-three weeks after treatment
Protocol: (§1) In this evaluation, seedling plants are grown in jiffy flats for about two weeks. The test compounds are dispersed in 80/20 acetone/water mixtures containing 1.0% SUN-IT® II, a methylated seed oil, in sufficient quantities to provide the equivalent of about 0.006 kg to 0.400 kg per hectare of active compound when applied to the plants through a spray nozzle operating at 40 psi for a predetermined time. After spraying, the plants are placed on greenhouse benches and are cared for in accordance with conventional greenhouse procedures. Approximately two - three weeks after treatment, the seedling plants are examined and rated according to the rating system set forth below. Where more than one test is involved for a given compound, the data are averaged.

AMBEL Ragweed, Common [2] = test: Postemergence herbicidal evaluation, AMBEL; type: in vivo, Ambrosia artemisifolia, L.; settings: postemergence spray, rated about two-three weeks after treatment
Protocol: as §1

CASOB Sicklepod [3] = test: Postemergence herbicidal evaluation, CASOB; type: in vivo, Cassia obtusifolia, L.; settings: postemergence spray, rated about two-three weeks after treatment
Protocol: as §1

[4] = test system: CHEAL Lambsquarters, Common; test: Postemergence herbicidal evaluation, CHEAL; type: in vivo, Chenopodium album, L.; settings: postemergence spray, rated about two-three weeks after treatment
Protocol: as §1

ECHOG Barnyardgrass [5] = test: Postemergence herbicidal evaluation, ECHOG; type: in vivo, Echinochloa crus-galli, (L.) Beau; settings: postemergence spray, rated about two-three weeks after treatment
Protocol: as §1

GALAP Galium [6] = test: Postemergence herbicidal evaluation, GALAP; type: in vivo, Galium aparine; settings: postemergence spray, rated about two-three weeks after treatment
Protocol: as §1

[7] = test system: IPOHE Morningglory, Ivyleaf; test: Postemergence herbicidal evaluation, IPOHE; type: in vivo, Ipomoea hederacea, (L.) Jacq.; settings: postemergence spray, rated about two-three weeks after treatment
Protocol: as §1

SETVI Foxtail, Green [8] = test: Postemergence herbicidal evaluation, SETVI; type: in vivo, Setaria viridis, (L.) Beau; settings: postemergence spray, rated about two-three weeks after treatment
Protocol: as §1

GLXMAW Soybean, Williams [9] = test: Postemergence herbicidal evaluation, GLXMAW; type: in vivo, Glycine max, (L.) Merr. cv Williams; settings: postemergence spray, rated about two-three weeks after treatment
Protocol: as §1

[10] = test system: TRZAWR Wheat, Winter, cv Riband; test: Postemergence herbicidal evaluation, TRZAWR; type: in vivo, Triticum aestivum; settings: postemergence spray, rated about two-three weeks after treatment
Protocol: as §1

ORYSAT Rice, Tebonnet [11] = test: Postemergence herbicidal evaluation, ORYSAT; type: in vivo, Oryza sativa, (L.); settings: postemergence spray, rated about two-three weeks after treatment
Protocol: as §1

ZEAMX Corn, Field [12] = test: Postemergence herbicidal evaluation, ZEAMX; type: in vivo, Zea mays, L. (Sammel-Bezeichnung); settings: postemergence spray, rated about two-three weeks after treatment
Protocol: as §1

ABUTH Velvetleaf [13] = test: Preemergence herbicidal evaluation, ABUTH; type: in vivo, Abutilon theophrasti, Medic.; settings: preemergence
Description: (§2) The preemergence herbicidal activity of the test compounds of the present invention is exemplified by the following tests in which the seeds of a variety of monocotyledonous and dicotyledonous plants are separately mixed with potting soil and planted on top of approximately one inch of soil in separate pint cups. […] The treated cups are then placed on greenhouse benches, watered and cared for in accordance with conventional greenhouse procedures. From four to five weeks after treatment, the tests are terminated and each cup is examined and rated according to the rating system provided in Example 46.

AMBEL Ragweed, Common [14] = test: Preemergence herbicidal evaluation, AMBEL; type: in vivo, Ambrosia artemisifolia, L.; settings: preemergence
Description: as §2

CASOB Sicklepod [15] = test: Preemergence herbicidal evaluation, CASOB; type: in vivo, Cassia obtusifolia, L.; settings: preemergence
Description: as §2

[16] = test system: CHEAL Lambsquarters, Common; test: Preemergence herbicidal evaluation, CHEAL; type: in vivo, Chenopodium album, L.; settings: preemergence
Description: as §2

ECHOG Barnyardgrass [17] = test: Preemergence herbicidal evaluation, ECHOG; type: in vivo, Echinochloa crus-galli, (L.) Beau; settings: preemergence
Description: as §2

GALAP Galium [18] = test: Preemergence herbicidal evaluation, GALAP; type: in vivo, Galium aparine; settings: preemergence
Description: as §2

[19] = test system: IPOHE Morningglory, Ivyleaf; test: Preemergence herbicidal evaluation, IPOHE; type: in vivo, Ipomoea hederacea, (L.) Jacq.; settings: preemergence
Description: as §2

SETVI Foxtail, Green [20] = test: Preemergence herbicidal evaluation, SETVI; type: in vivo, Setaria viridis, (L.) Beau; settings: preemergence
Description: as §2

GLXMAW Soybean, Williams [21] = test: Preemergence herbicidal evaluation, GLXMAW; type: in vivo, Glycine max, (L.) Merr. cv Williams; settings: preemergence
Description: as §2

[22] = test system: TRZAWR Wheat, Winter, cv Riband; test: Preemergence herbicidal evaluation, TRZAWR; type: in vivo, Triticum aestivum; settings: preemergence
Description: as §2

ORYSAT Rice, Tebonnet [23] = test: Preemergence herbicidal evaluation, ORYSAT; type: in vivo, Oryza sativa, (L.); settings: preemergence
Description: as §2

ZEAMX Corn, Field [24] = test: Preemergence herbicidal evaluation, ZEAMX; type: in vivo, Zea mays, L. (Sammel-Bezeichnung); settings: preemergence
Description: as §2

Compound: COc1ccc(-n2nnc3cc(F)c(-n4c(=O)cc(C(F)(F)F)n(C)c4=O)cc32)c(C)c1 [Example 24]
- Postemergence herbicidal rating ABUTH (ABUTH Velvetleaf [1]; 0.008 kg/ha): 3.0
- Postemergence herbicidal rating ABUTH (ABUTH Velvetleaf [1]; 0.016 kg/ha): 9.0
- Postemergence herbicidal rating ABUTH (ABUTH Velvetleaf [1]; 0.032 kg/ha): 9.0
- Postemergence herbicidal rating ABUTH (ABUTH Velvetleaf [1]; 0.062 kg/ha): 9.0
- Postemergence herbicidal rating AMBEL (AMBEL Ragweed, Common [2]; 0.008 kg/ha): 0.0
- Postemergence herbicidal rating AMBEL (AMBEL Ragweed, Common [2]; 0.016 kg/ha): 0.0
- Postemergence herbicidal rating AMBEL (AMBEL Ragweed, Common [2]; 0.032 kg/ha): 0.0
- Postemergence herbicidal rating AMBEL (AMBEL Ragweed, Common [2]; 0.062 kg/ha): 2.0
- Postemergence herbicidal rating CASOB (CASOB Sicklepod [3]; 0.008 kg/ha): 0.0
- Postemergence herbicidal rating CASOB (CASOB Sicklepod [3]; 0.016 kg/ha): 0.0
- Postemergence herbicidal rating CASOB (CASOB Sicklepod [3]; 0.032 kg/ha): 0.0
- Postemergence herbicidal rating CASOB (CASOB Sicklepod [3]; 0.062 kg/ha): 0.0
- Postemergence herbicidal rating CHEAL ([4]; 0.008 kg/ha): 3.0
- Postemergence herbicidal rating CHEAL ([4]; 0.016 kg/ha): 3.0
- Postemergence herbicidal rating CHEAL ([4]; 0.032 kg/ha): 3.0
- Postemergence herbicidal rating CHEAL ([4]; 0.062 kg/ha): 4.0
- Postemergence herbicidal rating ECHCG (ECHOG Barnyardgrass [5]; 0.008 kg/ha): 0.0
- Postemergence herbicidal rating ECHCG (ECHOG Barnyardgrass [5]; 0.016 kg/ha): 0.0
- Postemergence herbicidal rating ECHCG (ECHOG Barnyardgrass [5]; 0.032 kg/ha): 0.0
- Postemergence herbicidal rating ECHCG (ECHOG Barnyardgrass [5]; 0.062 kg/ha): 0.0
- Postemergence herbicidal rating GALAP (GALAP Galium [6]; 0.008 kg/ha): 0.0
- Postemergence herbicidal rating GALAP (GALAP Galium [6]; 0.016 kg/ha): 1.0
- Postemergence herbicidal rating GALAP (GALAP Galium [6]; 0.032 kg/ha): 2.0
- Postemergence herbicidal rating GALAP (GALAP Galium [6]; 0.062 kg/ha): 3.0
- Postemergence herbicidal rating IPOHE ([7]; 0.008 kg/ha): 0.0
- Postemergence herbicidal rating IPOHE ([7]; 0.016 kg/ha): 3.0
- Postemergence herbicidal rating IPOHE ([7]; 0.032 kg/ha): 4.0
- Postemergence herbicidal rating IPOHE ([7]; 0.062 kg/ha): 4.0
- Postemergence herbicidal rating SETVI (SETVI Foxtail, Green [8]; 0.008 kg/ha): 0.0
- Postemergence herbicidal rating SETVI (SETVI Foxtail, Green [8]; 0.016 kg/ha): 0.0
- Postemergence herbicidal rating SETVI (SETVI Foxtail, Green [8]; 0.032 kg/ha): 0.0
- Postemergence herbicidal rating SETVI (SETVI Foxtail, Green [8]; 0.062 kg/ha): 0.0
- Postemergence herbicidal rating GLXMAW (GLXMAW Soybean, Williams [9]; 0.008 kg/ha): 3.0
- Postemergence herbicidal rating GLXMAW (GLXMAW Soybean, Williams [9]; 0.016 kg/ha): 3.5
- Postemergence herbicidal rating GLXMAW (GLXMAW Soybean, Williams [9]; 0.032 kg/ha): 4.0
- Postemergence herbicidal rating GLXMAW (GLXMAW Soybean, Williams [9]; 0.062 kg/ha): 4.0
- Postemergence herbicidal rating TRZAWR ([10]; 0.008 kg/ha): 2.5
- Postemergence herbicidal rating TRZAWR ([10]; 0.016 kg/ha): 2.5
- Postemergence herbicidal rating TRZAWR ([10]; 0.032 kg/ha): 2.5
- Postemergence herbicidal rating TRZAWR ([10]; 0.062 kg/ha): 3.5
- Postemergence herbicidal rating ORYSAT (ORYSAT Rice, Tebonnet [11]; 0.008 kg/ha): 2.0
- Postemergence herbicidal rating ORYSAT (ORYSAT Rice, Tebonnet [11]; 0.016 kg/ha): 2.0
- Postemergence herbicidal rating ORYSAT (ORYSAT Rice, Tebonnet [11]; 0.032 kg/ha): 2.0
- Postemergence herbicidal rating ORYSAT (ORYSAT Rice, Tebonnet [11]; 0.062 kg/ha): 2.5
- Postemergence herbicidal rating ZEAMX (ZEAMX Corn, Field [12]; 0.008 kg/ha): 3.5
- Postemergence herbicidal rating ZEAMX (ZEAMX Corn, Field [12]; 0.016 kg/ha): 3.5
- Postemergence herbicidal rating ZEAMX (ZEAMX Corn, Field [12]; 0.032 kg/ha): 3.5
- Postemergence herbicidal rating ZEAMX (ZEAMX Corn, Field [12]; 0.062 kg/ha): 4.5
- ABUTH herbicidal rating (ABUTH Velvetleaf [13]; rate 0.016 kg/ha): 0.0
- ABUTH herbicidal rating (ABUTH Velvetleaf [13]; rate 0.032 kg/ha): 6.0
- ABUTH herbicidal rating (ABUTH Velvetleaf [13]; rate 0.062 kg/ha): 9.0
- ABUTH herbicidal rating (ABUTH Velvetleaf [13]; rate 0.125 kg/ha): 9.0
- AMBEL herbicidal rating (AMBEL Ragweed, Common [14]; rate 0.016 kg/ha): 0.0
- AMBEL herbicidal rating (AMBEL Ragweed, Common [14]; rate 0.032 kg/ha): 0.0
- AMBEL herbicidal rating (AMBEL Ragweed, Common [14]; rate 0.062 kg/ha): 0.0
- AMBEL herbicidal rating (AMBEL Ragweed, Common [14]; rate 0.125 kg/ha): 0.0
- CASOB herbicidal rating (CASOB Sicklepod [15]; rate 0.016 kg/ha): 0.0
- CASOB herbicidal rating (CASOB Sicklepod [15]; rate 0.032 kg/ha): 0.0
- CASOB herbicidal rating (CASOB Sicklepod [15]; rate 0.062 kg/ha): 0.0
- CASOB herbicidal rating (CASOB Sicklepod [15]; rate 0.125 kg/ha): 0.0
- CHEAL herbicidal rating ([16]; rate 0.016 kg/ha): 0.0
- CHEAL herbicidal rating ([16]; rate 0.032 kg/ha): 0.0
- CHEAL herbicidal rating ([16]; rate 0.062 kg/ha): 9.0
- CHEAL herbicidal rating ([16]; rate 0.125 kg/ha): 9.0
- ECHCG herbicidal rating (ECHOG Barnyardgrass [17]; rate 0.016 kg/ha): 0.0
- ECHCG herbicidal rating (ECHOG Barnyardgrass [17]; rate 0.032 kg/ha): 0.0
- ECHCG herbicidal rating (ECHOG Barnyardgrass [17]; rate 0.062 kg/ha): 3.0
- ECHCG herbicidal rating (ECHOG Barnyardgrass [17]; rate 0.125 kg/ha): 7.0
- GALAP herbicidal rating (GALAP Galium [18]; rate 0.016 kg/ha): 0.0
- GALAP herbicidal rating (GALAP Galium [18]; rate 0.032 kg/ha): 0.0
- GALAP herbicidal rating (GALAP Galium [18]; rate 0.062 kg/ha): 0.0
- IPOHE herbicidal rating ([19]; rate 0.016 kg/ha): 0.0
- IPOHE herbicidal rating ([19]; rate 0.032 kg/ha): 0.0
- IPOHE herbicidal rating ([19]; rate 0.062 kg/ha): 0.0
- IPOHE herbicidal rating ([19]; rate 0.125 kg/ha): 0.0
- SETVI herbicidal rating (SETVI Foxtail, Green [20]; rate 0.016 kg/ha): 0.0
- SETVI herbicidal rating (SETVI Foxtail, Green [20]; rate 0.032 kg/ha): 0.0
- SETVI herbicidal rating (SETVI Foxtail, Green [20]; rate 0.062 kg/ha): 9.0
- SETVI herbicidal rating (SETVI Foxtail, Green [20]; rate 0.125 kg/ha): 9.0
- GLXMAW herbicidal rating (GLXMAW Soybean, Williams [21]; rate 0.016 kg/ha): 0.0
- GLXMAW herbicidal rating (GLXMAW Soybean, Williams [21]; rate 0.032 kg/ha): 1.0
- GLXMAW herbicidal rating (GLXMAW Soybean, Williams [21]; rate 0.062 kg/ha): 2.0
- GLXMAW herbicidal rating (GLXMAW Soybean, Williams [21]; rate 0.125 kg/ha): 5.0
- TRZAWR herbicidal rating ([22]; rate 0.016 kg/ha): 0.0
- TRZAWR herbicidal rating ([22]; rate 0.032 kg/ha): 0.0
- TRZAWR herbicidal rating ([22]; rate 0.062 kg/ha): 1.0
- TRZAWR herbicidal rating ([22]; rate 0.125 kg/ha): 1.0
- ORYSAT herbicidal rating (ORYSAT Rice, Tebonnet [23]; rate 0.016 kg/ha): 0.0
- ORYSAT herbicidal rating (ORYSAT Rice, Tebonnet [23]; rate 0.032 kg/ha): 0.0
- ORYSAT herbicidal rating (ORYSAT Rice, Tebonnet [23]; rate 0.062 kg/ha): 1.0
- ORYSAT herbicidal rating (ORYSAT Rice, Tebonnet [23]; rate 0.125 kg/ha): 1.0
- ZEAMX herbicidal rating (ZEAMX Corn, Field [24]; rate 0.016 kg/ha): 0.0
- ZEAMX herbicidal rating (ZEAMX Corn, Field [24]; rate 0.032 kg/ha): 0.0
- ZEAMX herbicidal rating (ZEAMX Corn, Field [24]; rate 0.062 kg/ha): 4.0
- ZEAMX herbicidal rating (ZEAMX Corn, Field [24]; rate 0.125 kg/ha): 6.0
